ChEMBL document CHEMBL4152274, “Design, synthesis and X-ray crystallography of selenides bearing benzenesulfonamide moiety with neuropathic pain modulating effects” (Eur J Med Chem, 2018)
Activity calls are given as the source filed them. The calls are words filed in the database; no cut-off is given here.

Columns and labels:
[1] = target: Carbonic anhydrase 9 (Homo sapiens, UniProt Q16790); test: Inhibition of human carbonic anhydrase 9 incubated for 15 mins prior to testing by stopped-flow CO2 hydration assay
[2] = system: Mus musculus; test: Pain relieving effect in mouse oxaliplatin-induced neuropathic pain model at 30 mg/kg, po measured at 30 mins by cold plate test; format: functional, organism-based
[3] = system: Mus musculus; test: Pain relieving effect in mouse oxaliplatin-induced neuropathic pain model at 100 mg/kg, po measured over 15 to 45 mins by cold plate test; format: functional, organism-based

Row | Structure (SMILES) | Ki [1] [nM] | other results
1 | NS(=O)(=O)c1ccc(C[Se]c2ccc(NC(=O)/C=C/c3ccccc3)cc2)cc1 | 1010 | 
2 | NS(=O)(=O)c1ccc(C[Se]c2ccc3ccccc3c2)cc1 | 337 | 
3 | NS(=O)(=O)c1ccc(C[Se]c2ccccc2)cc1 |  | Activity [2]: Active
4 | NS(=O)(=O)c1ccc(C[Se]c2ccc(NC(=O)Nc3ccc(F)cc3)cc2)cc1 | 1070 | 
5 | NS(=O)(=O)c1ccc([Se]Cc2ccccc2)cc1 | 549 | 
6 | Nc1ccc([Se]Cc2ccc(S(N)(=O)=O)cc2)cc1 | 286 | 
7 | Cc1cc(C)cc(NC(=O)Nc2ccc([Se]Cc3ccc(S(N)(=O)=O)cc3)cc2)c1 | 1140 | 
8 | COCC[Se]c1ccc(S(N)(=O)=O)cc1 |  | Activity [3]: Active
9 | CC(=O)Oc1ccccc1C(=O)Nc1ccc([Se]Cc2ccc(S(N)(=O)=O)cc2)cc1 | 710 | 
10 | NS(=O)(=O)c1ccc(C[Se]c2ccc(NC(=S)Nc3ccc(-c4c5ccc(=O)cc-5oc5cc(O)ccc45)c(C(=O)O)c3)cc2)cc1 | 697 | 
11 | NS(=O)(=O)c1ccc([Se]CCc2ccccc2)cc1 |  | Activity [3]: Active
12 | COc1ccc(C(=O)Nc2ccc([Se]Cc3ccc(S(N)(=O)=O)cc3)cc2)c(OC)c1 | 845 | 
13 | NS(=O)(=O)c1ccc([Se]CC2CC2)cc1 | 46.4 | 
14 | N#C[Se]Cc1ccc(S(N)(=O)=O)cc1 | 4 | 
15 | CN(C)c1ccc([Se]Cc2ccc(S(N)(=O)=O)cc2)cc1 | 450 | 
